Here are results for 11 compounds from patent US20060205743A1, “Protein kinase inhibitors” (priority 2003, published 2006).

This assay concerns the target MAPKAP-K2 (Homo sapiens, UniProt P49137). The assay is described as follows: MAPKAP-Kinase 2 Assay (33P-ATP peptide phosphorylation, filter plate). Type of assay: biochemical. The following applies: assays conducted at typically 1-100 μM. Also on record: key: +: active; ++: more active; +++: very active. The method, then: MAPKAP-Kinase 2 Assay [Compound Preparation]
Compounds are dissolved in DMSO at a concentration of 3 mM and stored in aliquots at −20° C. Compounds in DMSO from these stock aliquots are diluted in 30% DMSO to produce initial working stock solutions of 1 mM and 3 mM. Both of these stock solutions are then subjected to 1:10 serial dilutions in 30% DMSO in order to prepare 3000, 1000, 300, 100, 30, 10, 3, 1, 0.1, 0.01 μM stock solutions. 5 μl of each stock solution is used per 50 μl reaction to give final assay concentrations of 300, 100, 30, 10, 3, 1, 0.3, 0.1, 0.01, 0.001 μM.
The kinase reaction is conducted in a round-bottomed polypropylene 96-well plate. MAPKAP-K2 is diluted to 25 mU/μl in diluent buffer (50 mM Tris/HCl. pH7.5, 0.1 mM EGTA, 0.1% (v/v) β-mercaptoethanol, 1 mg/ml BSA). 5 μl compound or 30% DMSO is added to each well followed by 25 μl substrate cocktail (10 μM ATP, 30 μM peptide (KKLNRTLSVA), 0.5 μCi ^33P-γ-ATP in 50 mM Tris pH7.5, 0.1 mM EGTA, 10 mM Mg-acetate, 0.1% BME). The reaction is initiated with the addition of 20 μl enzyme solution per well or 20 μl diluent buffer without enzyme. The plate is shaken for 10 sec and then left at room temperature for 30 min. The reaction is terminated with 50 μl 150 mM phosphoric acid. 90 μl of the reaction mixture is then transferred into a 96-well P81 filter plate (Millipore) and incubated at room temperature for 5 min. The filter plate is then washed 4 times with 200 μl 75 mM phosphoric acid per well on a plate vacuum manifold (Millipore) and dried in an oven for 2-3 h. Packard MicroScint ‘0’ (30 μl) is then added to each well, the plate is mixed for 30 min and subjected to liquid scintillation counting on a Packard TopCount.
[Interpretation] %Control=(X−B)/(Tot−B)×100 %Inhibition=100−% Control X=cpm of the test compound wells B=cpm of wells without enzyme Tot=cpm of wells with DMSO vehicle only

MAPKAP-K2, sequence (P49137 whole entry): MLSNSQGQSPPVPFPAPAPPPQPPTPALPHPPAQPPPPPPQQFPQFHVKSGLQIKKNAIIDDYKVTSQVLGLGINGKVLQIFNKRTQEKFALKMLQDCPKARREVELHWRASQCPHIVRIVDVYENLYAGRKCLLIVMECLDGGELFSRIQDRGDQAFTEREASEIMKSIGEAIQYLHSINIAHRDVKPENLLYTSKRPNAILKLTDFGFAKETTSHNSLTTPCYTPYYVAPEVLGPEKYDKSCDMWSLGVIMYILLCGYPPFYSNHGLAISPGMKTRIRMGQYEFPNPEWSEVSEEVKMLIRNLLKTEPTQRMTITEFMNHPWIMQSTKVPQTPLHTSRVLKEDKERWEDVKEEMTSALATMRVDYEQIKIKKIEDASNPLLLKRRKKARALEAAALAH

With `CCC(CC)CNC1CCC(Nc2cc(Nc3ccc(F)c(Cl)c3)n3nccc3n2)CC1` (centres unmarked) [Compound 130], the MAPKAP-K2 activity entry is on record as “+”.

For the compound `Fc1ccc(Nc2cc(NC3CCC(NCCCCc4ccccc4)CC3)nc3ccnn23)cc1Cl` (centres unmarked) [Compound 131], the MAPKAP-K2 activity entry is “++”.

Take `Fc1ccc(Nc2cc(NC3CCC(NCCCCCc4ccccc4)CC3)nc3ccnn23)cc1Cl` (centres unmarked) [Compound 132]: the MAPKAP-K2 activity result is reported as “++”.

Turning to `Fc1ccc(Nc2cc(NC3CCC(NC4CCCCC4)CC3)nc3ccnn23)cc1Cl` (centres unmarked) [Compound 134], the MAPKAP-K2 activity entry is recorded as “++”.

Consider `CC(C)NC1CCC(Nc2cc(Nc3ccc(F)c(Cl)c3)n3nccc3n2)CC1` (centres unmarked) [Compound 135], for which the MAPKAP-K2 activity entry is on record as “++”.

Consider `CN1CCC(N[C@H]2CC[C@H](Nc3cc(Nc4ccc(F)c(Cl)c4)n4nccc4n3)CC2)CC1` [Compound 136], for which the MAPKAP-K2 activity entry is “+++”.

In the case of `CC(CN(C)C)N[C@H]1CC[C@H](Nc2cc(Nc3ccc(F)c(Cl)c3)n3nccc3n2)CC1` (some centres unmarked) [Compound 137], the MAPKAP-K2 activity result is “+”.

Regarding `Fc1ccc(Nc2cc(N[C@H]3CC[C@H](NC4CCC(c5ccccc5)CC4)CC3)nc3ccnn23)cc1Cl` (some centres unmarked) [Compound 138], the MAPKAP-K2 activity entry is “+”.

`CCOc1ccc(Nc2cc(NC3CCCNC3)nc3ccnn23)cc1` (centres unmarked) [Compound 139]: the MAPKAP-K2 activity result is “+++”.

In the case of `Ic1cccc(Nc2cc(NC3CCCNC3)nc3ccnn23)c1` (centres unmarked) [Compound 140], the MAPKAP-K2 activity entry is “+++”.

As for `Fc1ccccc1Nc1cc(NC2CCCNC2)nc2ccnn12` (centres unmarked) [Compound 141], the MAPKAP-K2 activity result is listed as “+++”.
